Test results published in ChEMBL document CHEMBL4818987, “Recent advances of podophyllotoxin/epipodophyllotoxin hybrids in anticancer activity, mode of action, and structure-activity relationship: An update (2010-2020)” (Eur J Med Chem, 2020).

Columns and labels:
Format in all cases: functional, cell-based
NCI-H1993 = assay: Antiproliferative activity against human NCI-H1993 cells incubated for 48 to 72 hrs by MTT assay
MKN-45 = assay: Antiproliferative activity against human MKN-45 cells incubated for 48 to 72 hrs by MTT assay
HepG2 = assay: Antiproliferative activity against human HepG2 cells incubated for 48 to 72 hrs by MTT assay
B16 = assay: Antiproliferative activity against […] cells incubated for 48 to 72 hrs by MTT assay; details: Mus musculus
KB [1] = assay: Cytotoxicity against human Vincristine-resistant KB cells incubated for 72 hrs by SRB method
KB [2] = assay: Cytotoxicity against human KB cells incubated for 72 hrs by SRB method

| SMILES | IC50 (NCI-H1993) [nM] | IC50 (MKN-45) [nM] | IC50 (HepG2) [nM] | IC50 (B16) [nM] | IC50 (KB [1]) [nM] | IC50 (KB [2]) [nM] |
| --- | --- | --- | --- | --- | --- | --- |
| COc1cc([C@@H]2c3cc4c(cc3[C@H](n3cc(COc5ccc6c(c5)OCO6)nn3)[C@H]3COC(=O)[C@H]23)OCO4)cc(OC)c1OC | 130 | 130 | 130 | 130 | – | – |
| COc1cc([C@@H]2c3cc4c(cc3[C@@H](SSCCO)[C@H]3COC(=O)[C@H]23)OCO4)cc(OC)c1O | – | – | – | – | 1120 | 1120 |
| COc1cc([C@@H]2c3cc4c(cc3[C@@H](SSCCCN3CCC(O)CC3)[C@H]3COC(=O)[C@H]23)OCO4)cc(OC)c1O | – | – | – | – | 1120 | 1120 |
| COc1cc([C@@H]2c3cc4c(cc3[C@H](n3cc(COc5ccc(-c6ccccc6)cc5)nn3)[C@H]3COC(=O)[C@H]23)OCO4)cc(OC)c1OC | 150 | 150 | 150 | 150 | – | – |
| COc1cc([C@@H]2c3cc4c(cc3[C@@H](SSCCCN3CCOCC3)[C@H]3COC(=O)[C@H]23)OCO4)cc(OC)c1O | – | – | – | – | 1120 | 1120 |
| COc1cc([C@@H]2c3cc4c(cc3[C@H](n3cc(COc5ccc(C)c([N+](=O)[O-])c5)nn3)[C@H]3COC(=O)[C@H]23)OCO4)cc(OC)c1OC | 130 | 130 | 130 | 130 | – | – |
| COc1cc([C@@H]2c3cc4c(cc3[C@@H](SSCCCN3CCCC3)[C@H]3COC(=O)[C@H]23)OCO4)cc(OC)c1O | – | – | – | – | 1120 | 1120 |
| COc1cc([C@@H]2c3cc4c(cc3[C@H](n3cc(COc5cccc([N+](=O)[O-])c5)nn3)[C@H]3COC(=O)[C@H]23)OCO4)cc(OC)c1OC | 130 | 130 | 130 | 130 | – | – |
| COc1cc([C@@H]2c3cc4c(cc3[C@@H](SSc3cccs3)[C@H]3COC(=O)[C@H]23)OCO4)cc(OC)c1O | – | – | – | – | 1120 | 1120 |
| COc1cc([C@@H]2c3cc4c(cc3[C@@H](SSSCC(=O)N3CCNCC3)[C@H]3COC(=O)[C@H]23)OCO4)cc(OC)c1O | – | – | – | – | 1120 | 1120 |
| COc1cc([C@@H]2c3cc4c(cc3[C@@H](SSCCN3CCCC(O)C3)[C@H]3COC(=O)[C@H]23)OCO4)cc(OC)c1O (stereo not given in full) | – | – | – | – | 1120 | 1120 |
| COc1cc([C@@H]2c3cc4c(cc3[C@@H](SSSCC(O)CO)[C@H]3COC(=O)[C@H]23)OCO4)cc(OC)c1O (stereo not given in full) | – | – | – | – | 1120 | 1120 |
| COc1ccc(SCc2cn([C@H]3c4cc5c(cc4[C@@H](c4cc(OC)c(OC)c(OC)c4)[C@H]4C(=O)OC[C@@H]43)OCO5)nn2)cc1 | 130 | 130 | 130 | 130 | – | – |
| COc1cc([C@@H]2c3cc4c(cc3[C@@H](SSSCCO)[C@H]3COC(=O)[C@H]23)OCO4)cc(OC)c1O | – | – | – | – | 1120 | 1120 |
| COc1ccc(SCc2cn([C@H]3c4cc5c(cc4[C@@H](c4cc(OC)c(OC)c(OC)c4)[C@H]4C(=O)OC[C@@H]43)OCO5)nn2)cc1OC | 130 | 130 | 130 | 130 | – | – |
| COc1cc([C@@H]2c3cc4c(cc3[C@@H](SS[C@@H]3O[C@@H]5O[C@@H](c6cccs6)OC[C@H]5[C@H](O)[C@H]3O)[C@H]3COC(=O)[C@H]23)OCO4)cc(OC)c1O | – | – | – | – | 1120 | 1120 |
| COc1cc([C@@H]2c3cc4c(cc3[C@@H](SSCC(=O)N3CCC(=O)CC3)[C@H]3COC(=O)[C@H]23)OCO4)cc(OC)c1O | – | – | – | – | 1120 | 1120 |
| COc1ccc(OCc2cn([C@H]3c4cc5c(cc4[C@@H](c4cc(OC)c(OC)c(OC)c4)[C@H]4C(=O)OC[C@@H]43)OCO5)nn2)cc1 | 130 | 130 | 130 | 130 | – | – |
| COc1cc([C@@H]2c3cc4c(cc3[C@@H](SSCCN3CCNCC3)[C@H]3COC(=O)[C@H]23)OCO4)cc(OC)c1O | – | – | – | – | 1120 | 1120 |
| COc1cc([C@@H]2c3cc4c(cc3[C@@H](SSCCCN3CCN(C)CC3)[C@H]3COC(=O)[C@H]23)OCO4)cc(OC)c1O | – | – | – | – | 1120 | 1120 |
| COc1cc([C@@H]2c3cc4c(cc3[C@@H](SSCCN3CCOCC3)[C@H]3COC(=O)[C@H]23)OCO4)cc(OC)c1O | – | – | – | – | 1120 | 1120 |
| COc1cc([C@@H]2c3cc4c(cc3[C@@H](SSCCCN3CCN(C(C)=O)CC3)[C@H]3COC(=O)[C@H]23)OCO4)cc(OC)c1O | – | – | – | – | 1120 | 1120 |
| COc1cc([C@@H]2c3cc4c(cc3[C@@H](SSCCCN(C(C)C)C(C)C)[C@H]3COC(=O)[C@H]23)OCO4)cc(OC)c1O | – | – | – | – | 1120 | 1120 |
| COc1cc([C@@H]2c3cc4c(cc3[C@@H](SSS[C@@H]3O[C@H](CO)[C@@H](O)[C@H](O)[C@H]3O)[C@H]3COC(=O)[C@H]23)OCO4)cc(OC)c1O | – | – | – | – | 1120 | 1120 |

| SMILES | IC50 (NCI-H1993) [nM] | IC50 (MKN-45) [nM] | IC50 (HepG2) [nM] | IC50 (B16) [nM] | IC50 (KB [1]) [nM] | IC50 (KB [2]) [nM] |
| --- | --- | --- | --- | --- | --- | --- |
| COc1cc([C@@H]2c3cc4c(cc3[C@@H](SSc3cccnc3)[C@H]3COC(=O)[C@H]23)OCO4)cc(OC)c1O | – | – | – | – | 1120 | 1120 |
| COc1cc([C@@H]2c3cc4c(cc3[C@@H](SSCC(=O)N3CCCC(O)C3)[C@H]3COC(=O)[C@H]23)OCO4)cc(OC)c1O (stereo not given in full) | – | – | – | – | 1120 | 1120 |
| COC(=O)C(N)CSS[C@@H]1c2cc3c(cc2[C@@H](c2cc(OC)c(O)c(OC)c2)[C@H]2C(=O)OC[C@@H]21)OCO3 (stereo not given in full) | – | – | – | – | 1120 | 1120 |
| COc1cc([C@@H]2c3cc4c(cc3[C@@H](SSCC(=O)N3CCOCC3)[C@H]3COC(=O)[C@H]23)OCO4)cc(OC)c1O | – | – | – | – | 1120 | 1120 |
| COc1cc([C@@H]2c3cc4c(cc3[C@@H](SSCCN)[C@H]3COC(=O)[C@H]23)OCO4)cc(OC)c1O | – | – | – | – | 1120 | 1120 |
| COc1cc([C@@H]2c3cc4c(cc3[C@@H](SSCC(=O)N3CCC(O)CC3)[C@H]3COC(=O)[C@H]23)OCO4)cc(OC)c1O | – | – | – | – | 1120 | 1120 |
| COc1cc([C@@H]2c3cc4c(cc3[C@@H](SSc3ccccn3)[C@H]3COC(=O)[C@H]23)OCO4)cc(OC)c1O | – | – | – | – | 1120 | 1120 |
| COc1cc([C@@H]2c3cc4c(cc3[C@@H](SS[C@@H]3O[C@H](CO)[C@@H](O)[C@H](O)[C@H]3O)[C@H]3COC(=O)[C@H]23)OCO4)cc(OC)c1O | – | – | – | – | 1120 | 1120 |
| CCN(CC)CCCSS[C@@H]1c2cc3c(cc2[C@@H](c2cc(OC)c(O)c(OC)c2)[C@H]2C(=O)OC[C@@H]21)OCO3 | – | – | – | – | 1120 | 1120 |
| CCC(C)(C)c1ccc(OCc2cn([C@H]3c4cc5c(cc4[C@@H](c4cc(OC)c(OC)c(OC)c4)[C@H]4C(=O)OC[C@@H]43)OCO5)nn2)cc1 | 130 | 130 | 130 | 130 | – | – |
| CCSSS[C@@H]1c2cc3c(cc2[C@@H](c2cc(OC)c(O)c(OC)c2)[C@H]2C(=O)OC[C@@H]21)OCO3 | – | – | – | – | 1120 | 1120 |
| COc1cc([C@@H]2c3cc4c(cc3[C@H](n3cc(COc5ccc6ccc(=O)oc6c5)nn3)[C@H]3COC(=O)[C@H]23)OCO4)cc(OC)c1OC | 130 | 130 | 130 | 130 | – | – |
| COc1cc([C@@H]2c3cc4c(cc3[C@@H](SS[C@@H]3O[C@@H]5O[C@@H](C)OC[C@H]5[C@H](O)[C@H]3O)[C@H]3COC(=O)[C@H]23)OCO4)cc(OC)c1O | – | – | – | – | 1120 | 1120 |
| CCc1ccc(OC(C)(C)c2cn([C@H]3c4cc5c(cc4[C@@H](c4cc(OC)c(OC)c(OC)c4)[C@H]4C(=O)OC[C@@H]43)OCO5)nn2)cc1 | 150 | 150 | 150 | 150 | – | – |
| CCc1ccc(OCc2cn([C@H]3c4cc5c(cc4[C@@H](c4cc(OC)c(OC)c(OC)c4)[C@H]4C(=O)OC[C@@H]43)OCO5)nn2)cc1 | 130 | 130 | 130 | 130 | – | – |
| COc1cc([C@@H]2c3cc4c(cc3[C@@H](SSCC(=O)N3CCNCC3)[C@H]3COC(=O)[C@H]23)OCO4)cc(OC)c1O | – | – | – | – | 1120 | 1120 |
| COc1cc([C@@H]2c3cc4c(cc3[C@@H](SSCCCN3CCCCC3)[C@H]3COC(=O)[C@H]23)OCO4)cc(OC)c1O | – | – | – | – | 1120 | 1120 |
| COc1cc([C@@H]2c3cc4c(cc3[C@@H](SS[C@@H]3O[C@H](COC(C)=O)[C@H](OC(C)=O)[C@H](OC(C)=O)[C@H]3OC(C)=O)[C@H]3COC(=O)[C@H]23)OCO4)cc(OC)c1O | – | – | – | – | 1120 | 1120 |
| COc1cc([C@@H]2c3cc4c(cc3[C@@H](SSCCCN3CCCCC3CO)[C@H]3COC(=O)[C@H]23)OCO4)cc(OC)c1O (stereo not given in full) | – | – | – | – | 1120 | 1120 |
| COc1cc([C@@H]2c3cc4c(cc3[C@@H](SSSCCCN3CCOCC3)[C@H]3COC(=O)[C@H]23)OCO4)cc(OC)c1O | – | – | – | – | 1120 | 1120 |
| COc1cc([C@@H]2c3cc4c(cc3[C@H](n3cc(COc5ccc([N+](=O)[O-])cc5)nn3)[C@H]3COC(=O)[C@H]23)OCO4)cc(OC)c1OC | 130 | 130 | 130 | 130 | – | – |
| CCSS[C@@H]1c2cc3c(cc2[C@@H](c2cc(OC)c(O)c(OC)c2)[C@H]2C(=O)OC[C@@H]21)OCO3 | – | – | – | – | 1120 | 1120 |
| COc1cc([C@@H]2c3cc4c(cc3[C@@H](SSCCCN3CCNCC3)[C@H]3COC(=O)[C@H]23)OCO4)cc(OC)c1O | – | – | – | – | 1120 | 1120 |
| COc1cc([C@@H]2c3cc4c(cc3[C@@H](SS[C@@H]3O[C@H](CO)[C@H](O)[C@H](O)[C@H]3O)[C@H]3COC(=O)[C@H]23)OCO4)cc(OC)c1O | – | – | – | – | 9960 | 1120 |
